Measurements as given in US10857105B2, “Compounds and compositions for intracellular delivery of therapeutic agents” (ModernaTX, Inc., priority 2017, dated 2020).

Assays:
[1] = Encapsulation efficiency of RNA in nanoparticle compositions (RIBOGREEN assay); type: physicochemical
Method in brief: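 Lipid nanoparticles (ionisable lipid:DSPC:cholesterol:PEG-DMG 50:10:38.5:1.5 mol %) carrying N1-methylpseudouridine luciferase or hEPO mRNA diluted to about 5 μg/mL in TE, pH 7.5, with or without 2% Triton X-100, 15 min at 37° C. RiboGreen fluorescence (ex ~480, em ~520 nm) blank-subtracted; free RNA = intact/disrupted signal.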

[2] = tested on: luciferase (Luc) mRNA; test: Luciferase expression (whole body bioluminescence) after intravenous administration to mice; type: in vivo; settings: for Novel lipid/MC3 expression ratio, i.v.: intravenous, luciferase, 6 hr. time point, relative to MC3 formulation
Experimental: In order to monitor how effectively various nanoparticle compositions deliver therapeutic and/or prophylactics to targeted cells, different nanparticle compositions including a particular therapeutic and/or prophylactic (for example, a modified or naturally occurring RNA such as an mRNA) are prepared and administered to rodent populations. Mice are intravenously, intramuscularly, intraarterially, or intratumorally administered a single dose including a nanoparticle composition with a formulation such as those provided in Example 3. In some instances, mice may be made to inhale doses. Dose sizes may range from 0.001 mg/kg to 10 mg/kg, where 10 mg/kg describes a dose including 10 mg of a therapeutic and/or, prophylactic in a nanoparticle composition for each 1 kg of body mass of the mouse. A control composition including PBS may also be employed.
Upon administration of nanoparticle compositions to mice, dose delivery profiles, dose responses, and toxicity of particular formulations and doses thereof can be measured by enzyme-linked immunosorbent assays (ELISA), bioluminescent imaging, or other methods. For nanoparticle compositions including mRNA, time courses of protein expression can also be evaluated. Samples collected from the rodents for evaluation may include blood, sera, and tissue (for example, muscle tissue from the site of an intramuscular injection and internal tissue); sample collection may involve sacrifice of the animals.
The efficacy of the nanoparticle compositions presented in Table 1A was evaluated with a bioluminescence study. Formulations were administered intravenously to mice (n=6) at a dosage of 0.5 mg/kg (mpk) and bioluminescence measured at 3, 6, and 24 hour time points. The standard MC3 formulation and, in some instances, a control (e.g., a PBS control) were evaluated for comparison. […] In general, flux decreased as time progressed to less than 10% of the initial flux.
The total flux (measured by area under the curve, AUC) induced by administration of a formulation including a given lipid relative to that induced by administration of a formulation including MC3 was also measured for several lipids.

[3] = Particle size and polydispersity index of nanoparticle compositions (Zetasizer Nano ZS); type: physicochemical
Method in brief: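 Formulations of ionizable lipid, DSPC, cholesterol and PEG-DMG (50:10:38.5:1.5 mol %) carrying Luc or hEPO mRNA with all uridines as N1-methyl pseudouridine. Dynamic light scattering in 1×PBS gave particle size and polydispersity; zeta potential read in 15 mM PBS.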

[4] = tested on: modified luciferase; test: Luciferase expression in liver, lung, spleen and femur 6 hours after intravenous administration to mice; type: in vivo; settings: 6 hours after intravenous 0.5 mpk, mice
Method in brief: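 Mice (n=3) got a single 0.5 mpk IV dose of each nanoparticle composition, with MC3 and PBS controls alongside. Organ luminescence flux was read 6 h post-dose.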

[5] = Table 1A, lipid:DSPC:cholesterol:PEG-DMG 50:10:38.5:1.5 mol %
[6] = intravenous administration (Table 3D)
[7] = Table 1D, compositions for subcutaneous administration, # formulated with hEPO mRNA
[8] = Table 1B, formulated with hEPO mRNA

Row | Structure (SMILES) | EE [1, 5] [%] | Size [3, 5] [nm] | Size [3, 7] [nm] | EE [1, 8] [%] | Size [3, 8] [nm] | Size ([3]; Table 1E, compositions for subcutaneous administration) [nm] | AUC [2, 6] [p/s*h] | Total Flux, Liver [4] | Total Flux, Lung [4] | Total Flux, Spleen [4] | AUC ([2]; i.v. administration (Table 3C)) [h*p/s] | Novel lipid/MC3 expression ratio, i.v. [2]
1 | CCCCCCCCCOC(=O)CCCCCCCN(CCCCCCCC(=O)OC(CCCCCCCC)CCCCCCCC)CCOCCO [Compound 154, Heptadecan-9-yl 8-((2-(2-hydroxyethoxy)ethyl)(8-(nonyloxy)-8-oxooctyl)amino)octanoate] | 94.28 | 92.9 | – | – | – | – | 5.560E+010 | 3.62E+08 | 2.89E+06 | 1.30E+07 | – | –
2 | CCCCCCCCC(C)OC(=O)CCCCCCCN(CCO)CCCCCCCOC(=O)C(CCCCCCCC)CCCCCCCC (centres unmarked) [Compound 135, 7-((8-(Decan-2-yloxy)-8-oxooctyl)(2-hydroxyethyl)amino)heptyl 2-octyldecanoate] | 90.20 | 89.5 | – | – | – | – | – | 1.65E+10 | 2.71E+07 | 1.39E+08 | 1.25E+12 | –
3 | CCCCCCCCC(CCCCCCCC)OC(=O)CCCCCCCN(CCO)CCCCCCCC(=O)N(C)CCCCCCCC [Compound 145, Heptadecan-9-yl 8-((2-hydroxyethyl)(8-(methyl(octyl)amino)-8-oxooctyl)amino)octanoate] | 89.15 | – | – | – | – | – | – | 5.01E+08 | 1.36E+07 | 4.25E+08 | 8.1E+10 | –
4 | CCCCCCCCOP(=O)(OCCCCCCCC)OCCCCCCCN(CCO)CCCCCCCC(=O)OC(C)CCCCCCCC (centres unmarked) [Compound 132, Decan-2-yl 8-((7-((bis(octyloxy)phosphoryl)oxy)heptyl)(2-hydroxyethyl)amino)octanoate] | 30.77 | – | – | – | – | – | – | 1.49E+08 | 1.39E+07 | 3.37E+08 | 1.75E+10 | –
5 | CCCCCCCCCOC(=O)CCCCCCCN(CCCCCCCC(=O)OC(CCCCCCCC)CCCCCCCC)CCCn1cc(CO)nn1 [Compound 218, Heptadecan-9-yl 8-((3-(4-(hydroxymethyl)-1H-1,2,3-triazol-1-yl)propyl)(8-(nonyloxy)-8-oxooctyl)amino)octanoate] | 98.8 | 81.4 | – | – | – | – | – | – | – | – | – | >0.01
6 | CCCCCCCCCC(=O)OCCCCCCCN(CCO)CCCCCCCC(=O)OC(CCCCCCCC)CCCCCCCC [Compound 96, 7-((8-(Heptadecan-9-yloxy)-8-oxooctyl)(2-hydroxyethyl)amino)heptyl decanoate] | 79.04 | 120.5 | 82.6 | – | – | – | 1.209E+012 | 1.56E+10 | 3.43E+07 | 3.39E+08 | – | –
7 | CCCCCCCCCOC(=O)CCCCCCCN(CCCCCCCC(=O)OC(CCCCCCCC)CCCCCCCC)CCCNC(C)=O [Compound 108, Heptadecan-9-yl 8-((3-acetamidopropyl)(8-(nonyloxy)-8-oxooctyl)amino)octanoate] | 96 | 119 | – | 95.38 | 89.6 | 96.1 | – | 4.63E+08 | 9.81E+06 | 7.82E+08 | – | 0.40
8 | CCCCCCCCCOC(=O)CCCCCCCN(CCCCCCCC(=O)OC(CCCCCCCC)CCCCCCCC)CCN1CCOCC1 [Compound 103, Heptadecan-9-yl 8-((2-morpholinoethyl)(8-(nonyloxy)-8-oxooctyl)amino)octanoate] | 90.77 | 78.8 | – | – | – | – | – | 8.48E+07 | 2.06E+05 | 2.65E+06 | 2.4E+10 | –
9 | CCCCCCCCCOC(=O)CCCCCCCN(CCO)CCCCCCCOP(=O)(OCCCCCCCC)OCCCCCCCC [Compound 131, Nonyl 8-((7-((bis(octyloxy)phosphoryl)oxy)heptyl)(2-hydroxyethyl)amino)octanoate] | 75.44 | – | – | – | – | – | – | 3.52E+08 | 1.45E+07 | 8.32E+08 | 9.29E+10 | –
10 | CCCCCCCCCOC(=O)CCCCCCCN(CCCCCCCC(=O)OC(CCCCCCCC)CCCCCCCC)CCCNC(=O)COC [Compound 178, Heptadecan-9-yl 8-((3-(2-methoxyacetamido)propyl)(8-(nonyloxy)-8-oxooctyl)amino)octanoate] | 94.7 | 104.2 | – | – | – | – | – | – | – | – | – | 0.03

Further lines, with some results ahead:

Row | EE [1, 5] [%] | Size [3, 5] [nm] | Size [3, 7] [nm] | EE [1, 8] [%] | Size [3, 8] [nm] | Size ([3]; Table 1E, compositions for subcutaneous administration) [nm] | Structure (SMILES) | AUC [2, 6] [p/s*h] | Total Flux, Liver [4] | Total Flux, Lung [4] | Total Flux, Spleen [4] | AUC ([2]; i.v. administration (Table 3C)) [h*p/s] | Novel lipid/MC3 expression ratio, i.v. [2]
11 | 91.48 | 66.0 | – | – | – | – | CCCCCCCCC(CCCCCC)C(=O)OCCCCCCCCCN(CCO)CCCCCCCCCOC(=O)C(CCCCCC)CCCCCCCC (centres unmarked) [Compound 133, ((2-Hydroxyethyl)azanediyl)bis(nonane-9,1-diyl) bis(2-hexyldecanoate)] | – | 2.94E+09 | 3.18E+06 | 1.77E+07 | 3.62E+11 | –
12 | 91.94 | 97.0 | – | – | – | – | CCCCCCCCC(CCCCCCCC)OC(=O)CCCCCCCN(CCO)CCCCCC(=O)N(C)CCCCCCCC [Compound 146, Heptadecan-9-yl 8-((2-hydroxyethyl)(6-(methyl(octyl)amino)-6-oxohexyl)amino)octanoate] | – | 7.24E+06 | 3.88E+06 | 5.11E+07 | 1.04E+09 | –
13 | 25.49 | – | – | – | – | – | CCCCCCCCC(CCCCCCCC)OC(=O)CCCCCCCN(CCO)CCCCCCCC(=O)OCC(CCCCCCC)OC (centres unmarked) [Compound 148, Heptadecan-9-yl 8-((2-hydroxyethyl)(8-((2-methoxynonyl)oxy)-8-oxooctyl)amino)octanoate] | 4.965E+011 | 4.39E+09 | 3.27E+07 | 2.71E+09 | – | –
14 | 87.86 | 105.7 | 77.6 | – | – | – | CCCCCCCCCC(=O)OCCCCCCCN(CCO)CCCCCCCOC(=O)C(CCCCCCCC)CCCCCCCC [Compound 151, 7-((7-(Decanoyloxy)heptyl)(2-hydroxyethyl)amino)heptyl 2-octyldecanoate] | 7.010E+011 | 4.72E+09 | 9.20E+06 | 9.27E+07 | – | –
15 | 88.31 | 99.5 | – | 91.0 | 111.9 | – | CCCCCCCCCOC(=O)CCCCCCCN(CCO)CCCCCCCCCC(=O)OC(CCCCCC)CCCCCC [Compound 147, Tridecan-7-yl 10-((2-hydroxyethyl)(8-(nonyloxy)-8-oxooctyl)amino)decanoate] | – | 5.24E+09 | 6.73E+06 | 8.57E+07 | 5.63E+11 | –
16 | 96.72 | 63.1 | – | – | – | – | CCCCCCCCC(CCCCCCCC)OC(=O)CCCCCCCN(C)CCCCCCCCCCCC(=O)OCCCCC [Compound 150, Pentyl 12-((8-(heptadecan-9-yloxy)-8-oxooctyl)(methyl)amino)dodecanoate] | 2.704E+011 | 1.54E+09 | 2.20E+06 | 3.43E+07 | – | –
17 | 94.62 | 85.6 | – | – | – | – | CCCCCCCCCOC(=O)CCCCCCCN(CCO)CCCCCCCCCOC(=O)C(CCCCCC)CCCCCCCC (centres unmarked) [Compound 134, 9-((2-Hydroxyethyl)(8-(nonyloxy)-8-oxooctyl)amino)nonyl 2-hexyldecanoate] | – | 1.73E+09 | 2.82E+06 | 1.85E+07 | 3.43E+11 | –
18 | 37.36 | – | – | – | – | – | CCCCCCCCC(CCCCCCCC)OC(=O)CCCCCCCN(CCO)CCCCCCCC(=O)OC(C)(C)C [Compound 155, tert-Butyl 8-((8-(heptadecan-9-yloxy)-8-oxooctyl)(2-hydroxyethyl)amino)octanoate] | 1.266E+011 | 8.58E+08 | 1.00E+07 | 2.77E+08 | – | –
